Measured values published in patent US8895592B2, “Compounds as cannabinoid receptor ligands” (priority 2008, dated 2014).

Tests used:
rat CB2 receptors [1] = target: T1, rat CB2 receptors (Rattus norvegicus (Rat), UniProt Q9QZN9); assay: rat CB2 radioligand binding assay ([3H]CP 55,940 competition); conditions: HEK293 membranes, 0.5 nM [3H]CP 55,940
Experimental: HEK293 cells stably expressing rat CB2 receptors were grown until a confluent monolayer was formed. Briefly, the cells were harvested and homogenized in TE buffer (50 mM Tris-HCl, 1 mM MgCl2, and 1 mM EDTA) using a polytron for 2×10 second bursts in the presence of protease inhibitors, followed by centrifugation at 45,000×g for 20 minutes. The final membrane pellet was re-homogenized in storage buffer (50 mM Tris-HCl, 1 mM MgCl2, and 1 mM EDTA and 10% sucrose) and frozen at −78° C. until used. Saturation binding reactions were initiated by the addition of membrane preparation (protein concentration of 20 μg/well for rat CB2) into wells of a deep well plate containing [^3H]CP 55,940 (120 Ci/mmol, a nonselective CB agonist commercially available from Tocris) in assay buffer (50 mM Tris, 2.5 mM EDTA, 5 mM MgCl2, and 0.5 mg/mL fatty acid free BSA, pH 7.4). After 45 min incubation at 30° C., binding reaction was terminated by the addition of 300 μl/well of cold assay buffer followed by rapid vacuum filtration through a UniFilter-96 GF/C filter plates (pre-soaked in 1 mg/mL BSA for 2 hours). The bound activity was counted in a TopCount using Microscint-20. Saturation experiments were conducted with twelve concentrations of [^3H]CP 55,940 ranging from 0.01 to 8 nM. Competition experiments were conducted with 0.5 nM [^3H]CP 55,940 and five concentrations of displacing ligands selected from the range of 0.01 nM to 10 μM. The addition of 10 μM unlabeled CP 55,940 (Tocris, Ellisville, Mo.) was used to assess nonspecific binding.

human CB2 receptors = human CB2 receptors (Homo sapiens (Human), UniProt P34972); assay: human CB2 radioligand binding assay ([3H]CP 55,940 competition); conditions: HEK293 membranes, 0.5 nM [3H]CP 55,940
Sequence of human CB2 receptors (P34972 whole entry): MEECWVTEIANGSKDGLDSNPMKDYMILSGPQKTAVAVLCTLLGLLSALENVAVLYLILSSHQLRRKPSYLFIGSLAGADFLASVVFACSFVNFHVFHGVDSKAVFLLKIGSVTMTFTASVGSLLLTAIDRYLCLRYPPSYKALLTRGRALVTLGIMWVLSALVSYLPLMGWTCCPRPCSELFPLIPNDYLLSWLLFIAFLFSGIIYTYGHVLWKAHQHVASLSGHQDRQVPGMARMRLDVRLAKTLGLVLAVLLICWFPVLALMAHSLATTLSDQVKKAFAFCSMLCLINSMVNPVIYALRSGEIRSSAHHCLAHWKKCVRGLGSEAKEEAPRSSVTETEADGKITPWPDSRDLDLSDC
Experimental: HEK293 cells stably expressing human CB2 receptors were grown until a confluent monolayer was formed. Briefly, the cells were harvested and homogenized in TE buffer (50 mM Tris-HCl, 1 mM MgCl2, and 1 mM EDTA) using a polytron for 2×10 second bursts in the presence of protease inhibitors, followed by centrifugation at 45,000×g for 20 minutes. The final membrane pellet was re-homogenized in storage buffer (50 mM Tris-HCl, 1 mM MgCl2, and 1 mM EDTA and 10% sucrose) and frozen at −78° C. until used. Saturation binding reactions were initiated by the addition of membrane preparation (protein concentration of 5 μg/well for human CB2) into wells of a deep well plate containing [^3H]CP 55,940 (120 Ci/mmol, a nonselective CB agonist commercially available from Tocris) in assay buffer (50 mM Tris, 2.5 mM EDTA, 5 mM MgCl2, and 0.5 mg/mL fatty acid free BSA, pH 7.4). After 90 min incubation at 30° C., binding reaction was terminated by the addition of 300 μL/well of cold assay buffer followed by rapid vacuum filtration through a UniFilter-96 GF/C filter plates (pre-soaked in 1 mg/mL BSA for 2 hours). The bound activity was counted in a TopCount using Microscint-20. Saturation experiments were conducted with twelve concentrations of [^3H]CP 55,940 ranging from 0.01 to 8 nM. Competition experiments were conducted with 0.5 nM [^3H]CP 55,940 and five concentrations (0.01 nM to 10 μM) of displacing ligands. The addition of 10 μM unlabeled CP 55,940 (Tocris, Ellisville, Mo.) was used to assess nonspecific binding.

rat CB2 receptors [2] = target: T1, rat CB2 receptors; assay: rat CB2 cyclase functional assay (HitHunter cAMP); format: cell-based; conditions: HEK cells, forskolin 18 μM
Experimental: The cyclase functional assays were performed using the HitHunter™ cAMP assay kit from DiscoveRx (Fremont, Calif.) according to vendor's protocol. Briefly, HEK cells expressing CB2 or CB1 receptors (rat or human) were detached using cell dissociation buffer (Invitrogen, Carlsbad, Calif.), dispersed and placed in suspension at 10,000 cells per well in 96 well plates prior to the assay. Cell suspensions were incubated at 37° C. for 20 min with variable concentrations of test ligands and or 10 μM CP 55,940-positive control in the presence of a fixed concentration of forskolin (18 μM for rat CB2 and 37 μM for rat CB1) in Dulbescco's phosphate-buffered saline (Invitrogen, Carlsbad, Calif.) supplemented with bovine serum albumin (0.01% final concentration). The reactions were terminated by the addition of lysis buffer and the luminescence was detected following the procedure according to the manufacturer's instructions. EC50 values were calculated using sigmoidal dose-response curve fitting from Prism (GraphPad).

T1 sequence (Q9QZN9 whole entry): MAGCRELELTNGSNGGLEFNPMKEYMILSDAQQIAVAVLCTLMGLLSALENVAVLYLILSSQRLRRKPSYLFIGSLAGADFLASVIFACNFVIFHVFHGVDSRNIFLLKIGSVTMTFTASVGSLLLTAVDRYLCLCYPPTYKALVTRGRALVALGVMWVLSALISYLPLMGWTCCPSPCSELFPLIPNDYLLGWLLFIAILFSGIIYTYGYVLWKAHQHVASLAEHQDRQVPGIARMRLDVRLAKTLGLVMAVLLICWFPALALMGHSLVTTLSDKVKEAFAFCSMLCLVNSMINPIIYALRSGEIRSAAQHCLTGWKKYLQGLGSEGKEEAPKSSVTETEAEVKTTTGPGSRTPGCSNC

CC(C)Cn1cc(C(C)(C)C)s/c1=N\C(=O)c1cc(Br)ccc1OC[C@@H]1CCCN1C [Example 1, 5-bromo-N-[(2Z)-5-tert-butyl-3-isobutyl-1,3-thiazol-2(3H)-ylidene]-2-{[(2S)-1-methylpyrrolidin-2-yl]methoxy}benzamide]
Ki (rat CB2 receptors [1]): 19 nM | Ki (human CB2 receptors): 27 nM | EC50 (rat CB2 receptors [2]): 0.75 nM

CCCCn1cc(C(C)(C)C)s/c1=N\C(=O)c1cc(Cl)ccc1OCC(N)=O [Example 2, 2-(2-amino-2-oxoethoxy)-N-[(2Z)-3-butyl-5-tert-butyl-1,3-thiazol-2(3H)-ylidene]-5-chlorobenzamide]
Ki (rat CB2 receptors [1]): 1.1 nM | Ki (human CB2 receptors): 3.1 nM | EC50 (rat CB2 receptors [2]): 0.07 nM

CC(C)Cn1cc(C(C)(C)C)s/c1=N\C(=O)c1cc(C(F)(F)F)ccc1OCc1ccco1 [Example 3, N-[(2Z)-5-tert-butyl-3-isobutyl-1,3-thiazol-2(3H)-ylidene]-2-(2-furylmethoxy)-5-(trifluoromethyl)benzamide]
Ki (rat CB2 receptors [1]): 8.7 nM | Ki (human CB2 receptors): 7.4 nM | EC50 (rat CB2 receptors [2]): 1.9 nM

CC(C)Cn1cc(C(C)(C)C)s/c1=N\C(=O)c1cc(Cl)ccc1OCC1CCO1 (stereo not drawn) [Example 4, N-[(2Z)-5-tert-butyl-3-isobutyl-1,3-thiazol-2(3H)-ylidene]-5-chloro-2-(oxetan-2-ylmethoxy)benzamide]
Ki (rat CB2 receptors [1]): 5.2 nM | Ki (human CB2 receptors): 9 nM | EC50 (rat CB2 receptors [2]): 0.23 nM

CC(C)Cn1cc(C(C)(C)C)s/c1=N\C(=O)c1cc(C(F)(F)F)ccc1OC[C@@H]1CCCN1C [Example 5, N-[(2Z)-5-tert-butyl-3-isobutyl-1,3-thiazol-2(3H)-ylidene]-2-{[(2S)-1-methylpyrrolidin-2-yl]methoxy}-5-(trifluoromethyl)benzamide]
Ki (rat CB2 receptors [1]): 18 nM | Ki (human CB2 receptors): 39 nM | EC50 (rat CB2 receptors [2]): 1.2 nM

CC(C)Cn1cc(C(C)(C)C)s/c1=N\C(=O)c1cc(C(F)(F)F)ccc1OCCN1CCCC1 [Example 7, N-[(2Z)-5-tert-butyl-3-isobutyl-1,3-thiazol-2(3H)-ylidene]-2-(2-pyrrolidin-1-ylethoxy)-5-(trifluoromethyl)benzamide]
Ki (rat CB2 receptors [1]): 12 nM | Ki (human CB2 receptors): 32 nM | EC50 (rat CB2 receptors [2]): 1.3 nM

CC(C)Cn1cc(C(C)(C)C)s/c1=N\C(=O)c1cc(C(F)(F)F)ccc1OCC1CCOC1 (stereo not drawn) [Example 8, N-[(2Z)-5-tert-butyl-3-isobutyl-1,3-thiazol-2(3H)-ylidene]-2-(tetrahydrofuran-3-ylmethoxy)-5-(trifluoromethyl)benzamide]
Ki (rat CB2 receptors [1]): 2.4 nM | Ki (human CB2 receptors): 5 nM | EC50 (rat CB2 receptors [2]): 0.058 nM

CCCCn1cc(C(C)(C)C)s/c1=N\C(=O)c1cc(C(F)(F)F)ccc1OC[C@@H]1CCCN1C [Example 9, N-[(2Z)-3-butyl-5-tert-butyl-1,3-thiazol-2(3H)-ylidene]-2-{[(2S)-1-methylpyrrolidin-2-yl]methoxy}-5-(trifluoromethyl)benzamide]
Ki (rat CB2 receptors [1]): 7.7 nM | Ki (human CB2 receptors): 9.2 nM | EC50 (rat CB2 receptors [2]): 0.97 nM

CN1CCC[C@H]1COc1ccc(C(F)(F)F)cc1C(=O)/N=c1\sc(C(C)(C)C)cn1CC1(O)CCC1 [Example 11, N-[(2Z)-5-tert-butyl-3-[(1-hydroxycyclobutyl)methyl]-1,3-thiazol-2(3H)-ylidene]-2-{[(2S)-1-methylpyrrolidin-2-yl]methoxy}-5-(trifluoromethyl)benzamide]
Ki (rat CB2 receptors [1]): 32 nM | Ki (human CB2 receptors): 95 nM | EC50 (rat CB2 receptors [2]): 0.41 nM

CC(C)Cn1cc(C(C)(C)C)s/c1=N\C(=O)c1cc(C(F)(F)F)ccc1OC[C@@H]1CCN1C [Example 12, N-[(2Z)-5-tert-butyl-3-isobutyl-1,3-thiazol-2(3H)-ylidene]-2-{[(2S)-1-methylazetidin-2-yl]methoxy}-5-(trifluoromethyl)benzamide]
Ki (rat CB2 receptors [1]): 26 nM | Ki (human CB2 receptors): 37 nM | EC50 (rat CB2 receptors [2]): 3.5 nM

CC(C)Cn1cc(C(C)(C)C)s/c1=N\C(=O)c1cc(C(F)(F)F)ccc1OC[C@@H]1CCN1 [Example 14, 2-[(2S)-azetidin-2-ylmethoxy]-N-[(2Z)-5-tert-butyl-3-isobutyl-1,3-thiazol-2(3H)-ylidene]-5-(trifluoromethyl)benzamide]
Ki (rat CB2 receptors [1]): 13 nM | Ki (human CB2 receptors): 44 nM | EC50 (rat CB2 receptors [2]): 0.36 nM

CC(=O)OCCOc1ccc(C(F)(F)F)cc1C(=O)/N=c1\sc(C(C)(C)C)cn1CC(C)C [Example 18, 2-[2-({[(2Z)-5-tert-butyl-3-isobutyl-1,3-thiazol-2(3H)-ylidene]amino}carbonyl)-4-(trifluoromethyl)phenoxy]ethyl acetate]
Ki (rat CB2 receptors [1]): 1.4 nM | Ki (human CB2 receptors): 16 nM | EC50 (rat CB2 receptors [2]): 0.19 nM

CC(C)Cn1cc(C(C)(C)C)s/c1=N\C(=O)c1cc(C(F)(F)F)ccc1OCCO [Example 19, N-[(2Z)-5-tert-butyl-3-isobutyl-1,3-thiazol-2(3H)-ylidene]-2-(2-hydroxyethoxy)-5-(trifluoromethyl)benzamide]
Ki (rat CB2 receptors [1]): 0.15 nM | Ki (human CB2 receptors): 0.73 nM | EC50 (rat CB2 receptors [2]): 0.13 nM

CCCCn1/c(=N/C(=O)c2cc(C(F)(F)F)ccc2OCC(C)(C)O)sc2ccncc21 [Example 21, N-[(2Z)-3-butyl[1,3]thiazolo[4,5-c]pyridin-2(3H)-ylidene]-2-(2-hydroxy-2-methylpropoxy)-5-(trifluoromethyl)benzamide]
Ki (rat CB2 receptors [1]): 9.3 nM | Ki (human CB2 receptors): 5.4 nM | EC50 (rat CB2 receptors [2]): 0.58 nM

CCCCn1/c(=N/C(=O)c2cc(C(F)(F)F)ccc2OCCNC(C)=O)sc2ccncc21 [Example 25, 2-[2-(acetylamino)ethoxy]-N-[(2Z)-3-butyl[1,3]thiazolo[4,5-c]pyridin-2(3H)-ylidene]-5-(trifluoromethyl)benzamide]
Ki (rat CB2 receptors [1]): 3.6 nM | Ki (human CB2 receptors): 1.5 nM | EC50 (rat CB2 receptors [2]): 0.11 nM

CCCCn1/c(=N/C(=O)c2cc(C(F)(F)F)ccc2OC[C@H](C)O)sc2ccncc21 [Example 29, N-[(2Z)-3-butyl[1,3]thiazolo[4,5-c]pyridin-2(3H)-ylidene]-2-{[(2S)-2-hydroxypropyl]oxy}-5-(trifluoromethyl)benzamide]
Ki (rat CB2 receptors [1]): 2.5 nM | Ki (human CB2 receptors): 2 nM | EC50 (rat CB2 receptors [2]): 1.4 nM
